In brackets after ≈: the same amount, converted by molar mass. Where a SMILES comes first, the peptide text is derived from it. Bridges are numbered along the chain shown (N, C = ends). Roman numbers before positions name the chains, in order. The star is where a group is joined. Myristoyl = CCCCCCCCCCCCCC(=O)* Where only a bound is given, the exact number is not on record here.

Series [1] can be described thus: RP-HPLC retention to evaluate the hydrophobicity of lipopeptides. It counts as physicochemical. To be noted: chromatographic, Luna C18(2) 3.0 × 100 mm, 5.0 µm, linear 20–80% acetonitrile in water over 10 min, 0.1% formic acid, 0.5 mL/min, UV 214 nm, used to evaluate hydrophobicity. The protocol: The crude peptide was lyophilized and subsequently purified by RP-HPLC. The purifications were carried out on a Phenomenex Gemini-NX C18 column (21.20 × 100 mm, 5.0 µm particle size, and 110 Å pore size). Acetonitrile and water, both containing 0.1% of TFA, were used as the mobile phase. UV detection at 214 nm was used. The crude peptides were eluted with a linear 20–80% acetonitrile gradient in deionized water over 60 min at a flow rate of 10.0 mL/min. The purity and identity of the peptides were confirmed with LC-MS analysis. A Waters Alliance e2695 RP-HPLC system (Waters, Milford, MA, USA) with Waters 2998 PDA (Waters, Milford, MA, USA) and Acquity QDA detectors (Empower®3 software, Database Version 7.21.00.00) was used. All analyses were carried out on a Phenomenex, Luna C18(2) column (3.0 × 100 mm, 5.0 µm particle size, 100 Å pore size). The samples were analyzed with a linear 20–80% acetonitrile gradient in deionized water over 10 min at a flow rate of 0.5 mL/min with UV detection at 214 nm. Both eluents contained 0.1% (v/v) of formic acid. The pure fractions (>95%, by HPLC analysis) were collected and lyophilized. The retention time and percentage of ACN (%) at which each peptide was eluted are included in Table 1 to evaluate the hydrophobicity of lipopeptides. The identity of all compounds was confirmed using mass spectrometry (Waters Alliance e2695 system with Acquity QDA detector, Waters, Milford, MA, USA) with electrospray ionization in positive ion mode (ESI-MS). In this mode, a proton is attached to basic moieties (amine groups, guanidine groups). The theoretical mass of the peptide was calculated and then expected ions (m/z—mass to charge ratio) were compared to measured m/z. The results are presented in Table 1, and mass spectra are presented in the Supplementary Materials.

Series [2] relates to Enterococcus faecalis ATCC 29212. It counts as cell-based. To be noted: ATCC 29212, 18 h. How it is done:
(§1) The reference strains of gram-positive and gram-negative bacteria (Table 2) were obtained from the Polish Collection of Microorganisms (Polish Academy of Science, Wroclaw, Poland). The microorganisms were cultured in Muller Hinton Broth II (MHB II, Biocorp, Warsaw, Poland), overnight, at 37 °C. The MICs of synthetic lipopeptides and conventional antimicrobials were determined using the broth microdilution method according to the Clinical and Laboratory Standard Institute (CLSI) guidelines on reference strains. […] The PS were incubated under aerobic conditions at 37 °C for 18 h. The MIC (μg/mL) was assumed as the lowest concentration of the compound that inhibited the growth of the microorganisms. All experiments were performed in triplicate and included the growth and sterility controls.

For series [3], the system named is Escherichia coli ATCC 25922. It is filed as cell-based. To be noted: ATCC 25922, 18 h. How it is done: as §1
In series [4] the test system is Proteus mirabilis PCM 543. It is filed as cell-based. To be noted: PCM 543, 18 h. How it is done:
as §1

Series [5] has as its system Pseudomonas aeruginosa ATCC 9027. It is filed as cell-based. To be noted: ATCC 9027, 18 h. How it is done: as §1
Series [6] relates to Staphylococcus aureus ATCC 25923. It is filed as cell-based. The note with it: ATCC 25923, 18 h. How it is done: as §1
The subject of series [7] is Staphylococcus epidermidis ATCC 14990. It is filed as cell-based. The note with it: ATCC 14990, 18 h. How it is done:
as §1

For series [8], the system named is Enterococcus faecalis ATCC 29212. It counts as cell-based. The note with it: ATCC 29212, 24 h. The protocol: (§2) The biofilms of bacteria associated with the biofilm-related infections were cultured on 96-well flat bottom PS and on CL placed in 24-well plates. The bacteria at initial inoculums of 5 × 10^8 CFU/mL in MHB II were added to the plates and incubated at 37 °C under aerobic conditions. After 24 h of incubation, all cultures were rinsed three times with PBS and fresh medium was added. Subsequently, the obtained biofilm cultures were exposed to solutions of antimicrobials applied at graded concentrations ranging from 1 to 512 μg/mL for 24 h at 37 °C. The anti-biofilm activity of antimicrobials was visualized by resazurin (final concentration per sample = 0.005%) in the same way as in the MBFIC assay. All experiments were performed in triplicate and included growth controls (positive control: bacterial suspension without antimicrobials) and sterility controls (negative controls: sterile MBH II medium).

Series [9] relates to Escherichia coli ATCC 25922. It is filed as cell-based. To be noted: ATCC 25922, 24 h. How it is done: as §2
In series [10] the test system is Proteus mirabilis PCM 543. It counts as cell-based. The note with it: PCM 543, 24 h. How it is done: as §2
Series [11] deals with Pseudomonas aeruginosa ATCC 9027. It is filed as cell-based. The note with it: ATCC 9027, 24 h. How it is done:
as §2

Series [12] concerns Staphylococcus aureus ATCC 25923. It counts as cell-based. The note with it: ATCC 25923, 24 h. The protocol: as §2
For series [13], the system named is Staphylococcus epidermidis ATCC 14990. It counts as cell-based. The note with it: ATCC 14990, 24 h. How it is done: as §2

Take `CCCCCCCCCCCCCC(=O)N[C@@H](CCCCN)C(=O)N[C@@H](CCCCN)C(=O)N[C@@H](CSSC[C@H](NC(=O)[C@H](CCCCN)NC(=O)[C@H](CCCCN)NC(=O)CCCCCCCCCCCCC)C(N)=O)C(N)=O` [Lipopeptide 3, C14-KKC-NH2] (I: Myristoyl-Lys-Lys-Cys-NH2 / II: Myristoyl-Lys-Lys-Cys-NH2; disulfide I:3-II:3): in series [1], the “% ACN at which the peptide was eluted” value was 43.3% and the “tR' (adjusted retention time)” value amounted to 3.88 min. Further, in series [2], the “MIC E. faecalis” value worked out at 16 µg/mL (≈ 13.7 µM). Besides, the “MIC E. coli” value in series [3] came out at 64 µg/mL (≈ 54.6 µM). Moreover, the “MIC P. mirabilis” value in [4] was 512 µg/mL (≈ 437 µM). Besides, the “MIC P. aeruginosa” value in series [5] stood at 128 µg/mL (≈ 109 µM). The “MIC S. aureus” value in series [6] came to 32 µg/mL (≈ 27.3 µM). For the same compound, in series [7], the “MIC S. epidermidis” value came out at 4 µg/mL (≈ 3.41 µM). Also, in series [8], the “MBEC E. faecalis, CL” value is listed as 256/256 μg/mL. Moreover, the “MBEC E. coli, CL” value in [9] was 512/512 μg/mL. The “MBEC P. mirabilis, CL” value in [10] is given as 512/>512 μg/mL. Besides, the “MBEC P. aeruginosa, CL” value in series [11] is above 512 µg/mL. The “MBEC S. aureus, CL” value in series [12] was 128/128 μg/mL. Moreover, the “MBEC S. epidermidis, CL” value in series [13] is 512 µg/mL.

(Values after article PMC6835763, “Influence of Short Cationic Lipopeptides with Fatty Acids of Different Chain Lengths on Bacterial Biofilms Formed on Polystyrene and Hydrogel Surfaces” (Pharmaceutics, 2019).)
